The record followed here is patent publication US5688787A, “Substituted β-lactam compounds useful as hypochlesterolemic agents and processes for the preparation thereof” (priority 1996, dated 1997).

In the assay the test system is Hyperlipidemic Hamster. In words: In Vivo Assay of Hypolipidemic Agents Using the Hyperlipidemic Hamster. The note with it: Mesocricetus auratus, po, 168 h, 7 days, percent change versus control, negative = lowering; for change in vivo at 1 mg/kg: 1 mg/kg once daily oral; for change in vivo at 3 mg/kg: 3 mg/kg once daily oral; for change in vivo at 10 mg/kg: 10 mg/kg once daily oral; for change in vivo at 50 mg/kg: 50 mg/kg once daily oral; for change in vivo at 5 mg/kg: 5 mg/kg once daily oral. The method, then:
In Vivo Assay of Hypolipidemic Agents Using the Hyperlipidemic Hamster
Hamsters are separated into groups of six and given a controlled cholesterol diet (Purina Chow #5001 containing 0.5% cholesterol) for seven days. Diet consumption is monitored to determine dietary cholesterol exposure in the face of test compounds. The animals are dosed with the test compound once daily beginning with the initiation of diet. Dosing is by oral gavage of 0.2mL of corn oil alone (control group) or solution (or suspension) of test compound in corn oil. All animals roodbund or in poor physical condition are euthanized. After seven days, the animals are anesthetized by IM injection of ketamine and sacrificed by decapitation. Blood is collected into vacutainer tubes containing EDTA for plasma lipid analysis and the liver excised for tissue lipid analysis. Data is reported as percent reduction of lipid versus control.
Using the test procedures described above, the following in vitro and in vivo data were obtained for the preferred compounds, which are referred to in the following table by the corresponding example numbers. For the in vitro ACAT data, negative percent inhibition denotes apparent stimulation,while positive numbers denote inhibition. For the in vivo results, data is reported as percent change versus control, therefore, negative numbers indicate a positive lipid-lowering effect.

Where [1] appears, read: read-out: % Reduction (in vivo) Cholest. Esters.
Where [2] appears, read: read-out: % Reduction (in vivo) Serum Cholest.

Read-outs that look alike come from different tables or passages of the source.

For the compound `COc1ccc([C@@H]2[C@@H](CCCc3ccccc3)C(=O)N2c2ccccc2)cc1` [Example 5L], under setting [1], the change in vivo at 1 mg/kg was -64%, the change in vivo at 3 mg/kg was -84% and the change in vivo at 10 mg/kg is -95%. Under setting [2], the change in vivo at 1 mg/kg is -54%, the change in vivo at 3 mg/kg was -39% and the change in vivo at 10 mg/kg is -50%.
Regarding `COc1ccc([C@@H]2[C@@H]([C@H]3C[C@H]3Cc3ccccc3)C(=O)N2c2ccc(OC)cc2)cc1` (relative stereo) [Example 36], the change in vivo at 50 mg/kg is, setting by setting: under setting [1], -94%; under setting [2], -53%.
The matching figures for `COc1ccc([C@@H]2[C@@H](CCCc3ccccc3)C(=O)N2c2ccc(OC)nc2)cc1` (relative stereo) [Example 7F]: -26% and 0%.
In the same order, the values of `COc1ccc([C@H]2[C@@H](CCCc3ccccc3)C(=O)N2c2ccc(Cl)cc2)cc1` (relative stereo) [Example 1AO] are -78% and -33%.
Regarding `CON=Cc1ccc([C@H]2[C@@H](CCCc3ccccc3)C(=O)N2c2ccc(OC)cc2)cc1` (relative stereo) [Example 27], the change in vivo at 50 mg/kg reads like this: under setting [1], -36%; under setting [2], -12%.
The matching figures for `COc1ccc([C@@H]2[C@@H](CCCc3ccccc3)C(=O)N2c2ccc(C)cc2)cc1` (relative stereo) [Example 5J]: -90% and -38%.
The matching figures for `COCc1ccc([C@H]2[C@@H](CCCc3ccccc3)C(=O)N2c2ccc(OC)cc2)cc1` (relative stereo) [Example 21A]: -25% and 0%.
In the same order, the values of `COc1ccc(N2C(=O)[C@H](CCCc3ccccc3)[C@@H]2c2ccc(-c3ccccc3)cc2)cc1` (relative stereo) [Example 1BT] are 0% and 0%.
For `COc1ccc([C@H]2[C@@H](CCCc3ccccc3)C(=O)N2c2ccc(OC)cc2)cc1` [Example 2A], the change in vivo at 50 mg/kg by setting is: under setting [1], 0%; under setting [2], 0%.
As to `COc1ccc([C@@H]2[C@@H](CCCc3ccccc3)C(=O)N2c2cc(F)cc(F)c2)cc1` (relative stereo) [Example 7E], the change in vivo at 50 mg/kg under setting [1] was -93% and the change in vivo at 50 mg/kg under setting [2] was -52%.
On to `COc1ccc([C@@H]2[C@H](NC(=O)Cc3ccccc3)C(=O)N2c2ccccc2)cc1` (relative stereo) [Example 12], for which the change in vivo at 50 mg/kg was 0% under setting [1] and -12% under setting [2].
For the compound `COc1ccc([C@@H]2[C@H](N3C(=O)c4ccccc4C3=O)C(=O)N2c2ccccc2)cc1` (relative stereo) [Example 7L], the change in vivo at 50 mg/kg under setting [1] came to 0% and the change in vivo at 50 mg/kg under setting [2] worked out at 0%.
`COCc1ccc([C@@H]2[C@@H](CCCc3ccccc3)C(=O)N2c2ccc(OC)cc2)cc1` (relative stereo) [Example 21]: the change in vivo at 50 mg/kg is -56% under setting [1] and -27% under setting [2].
The matching figures for `COc1ccc(NC[C@H]2[C@@H](CCCc3ccccc3)C(=O)N2c2ccc(OC)cc2)cc1` (relative stereo) [Example 19D]: -18% and -15%.
Regarding `COc1ccc([C@@H]2[C@@H](CCCc3ccccc3)C(=O)N2c2cccnc2)cc1` (relative stereo) [Example 1AM], the change in vivo at 50 mg/kg under setting [1] is -29% and the change in vivo at 50 mg/kg under setting [2] was -12%.
The matching figures for `COc1ccc(N2C(=O)[C@H](CCCc3ccccc3)[C@H]2c2ccc(OC)c(C)c2)cc1` (relative stereo) [Example 7Q]: 0% and -16%.
In the same order, the values of `COc1ccc([C@@H]2[C@@H](CCCc3ccccc3)C(=O)N2c2ccc(Cl)cc2)cc1` (relative stereo) [Example 5G] are -93% and -44%.
In the same order, the values of `COc1ccc(N2C(=O)[C@H](CCCc3ccccc3)[C@H]2c2ccc(CN3CCN(C)CC3)cc2)cc1` (relative stereo) [Example 19C] are -46% and -9%.
For `COc1ccc([C@H]2[C@@H](CCCc3ccccc3)C(=O)N2c2ccc(C)cc2)cc1` (relative stereo) [Example 1AP], the change in vivo at 50 mg/kg by setting is: under setting [1], -95%; under setting [2], -51%.
The matching figures for `COc1ccc([C@@H]2[C@H](Cc3ccc4ccccc4c3)C(=O)N2c2ccccc2)cc1` (relative stereo) [Example 7AQ]: -91% and -52%.
In the same order, the values of `COc1ccc(N2C(=O)[C@H](CCCc3ccccc3)[C@H]2c2ccc(OCc3ccccc3)cc2)cc1` (relative stereo) [Example 5T] are -48% and -15%.
In the same order, the values of `COc1ccc(N2C(=O)[C@H](CCCc3ccccc3)[C@H]2c2ccc(O)c(I)c2)cc1` (relative stereo) [Example 32] are 0% and 0%.
In the case of `COc1ccc(N2C(=O)[C@H](CCCc3ccccc3)[C@@H]2c2ccnc3ccccc23)cc1` (relative stereo) [Example 1BX], the change in vivo at 50 mg/kg runs as follows: under setting [1], 0%; under setting [2], 0%.
As to `COc1ccc([C@@H]2[C@@H](CCCc3ccccc3)C(=O)N2c2ccc(C#N)cc2)cc1` (relative stereo) [Example 7D], the change in vivo at 50 mg/kg was -74% under setting [1] and -35% under setting [2].
As for `COc1ccc(N2C(=O)[C@@H](CCCc3ccccc3)[C@@H]2c2cc3ccccc3o2)cc1` (relative stereo) [Example 1CA], the change in vivo at 50 mg/kg runs as follows: under setting [1], 0%; under setting [2], -12%.
The matching figures for `COc1ccc([C@@H]2[C@@H](CCCc3ccc([N+](=O)[O-])cc3)C(=O)N2c2ccc(OC)cc2)cc1` (relative stereo) [Example 7Z]: -39% and -21%.
Turning to `COc1ccc(C2C(CCCc3ccccc3)C(=O)N2c2ccc(OC)cc2)cc1` (centres unmarked) [Example 1], under setting [1], the change in vivo at 5 mg/kg amounted to 0%, the change in vivo at 10 mg/kg is -55% and the change in vivo at 50 mg/kg is -95%. In addition, under setting [2], the change in vivo at 5 mg/kg was 0%, the change in vivo at 10 mg/kg was -17% and the change in vivo at 50 mg/kg is -45%.
Take `COc1ccc(N2C(=O)[C@H](CCCc3ccccc3)[C@@H]2c2ccc(Oc3ccccc3)cc2)cc1` (relative stereo) [Example 1BS]: the change in vivo at 50 mg/kg is -43% under setting [1] and 0% under setting [2].
The matching figures for `COc1ccc(N2C(=O)[C@H](CCCc3ccccc3)[C@@H]2c2ccc(S)cc2)cc1` (relative stereo) [Example 28]: 0% and -19%.
In the same order, the values of `COc1ccc([C@@H]2[C@@H](CCCc3ccccc3)C(=O)N2c2cccc([N+](=O)[O-])c2)cc1` (relative stereo) [Example 7B] are -45% and -13%.
In the same order, the values of `COc1ccc(N2C(=O)[C@H](CCCc3ccccc3)[C@H]2c2ccc(N(S(C)(=O)=O)S(C)(=O)=O)cc2)cc1` (relative stereo) [Example 25A] are 0% and -13%.
`COc1ccc([C@@H]2[C@@H](CCCc3ccccc3)C(=O)N2c2ccc(OC)cc2)cc1` [Example 9, (3R,4S)-1,4-bis-(4-methoxyphenyl)-3-(3-phenylpropyl)-2-azetidinone]: under setting [1], the change in vivo at 3 mg/kg is -68%, the change in vivo at 5 mg/kg is -66% and the change in vivo at 10 mg/kg was -93%. Also, under setting [2], the change in vivo at 3 mg/kg was -25%, the change in vivo at 5 mg/kg is -21.5% and the change in vivo at 10 mg/kg is -43%.
For `COc1ccc(N2C(=O)[C@H](CCCc3ccccc3)[C@@H]2CN2CCOCC2)cc1` (relative stereo) [Example 19E], the change in vivo at 50 mg/kg by setting is: under setting [1], -30%; under setting [2], -19%.
Turning to `CCCCOc1ccc([C@H]2[C@@H](CCCc3ccccc3)C(=O)N2c2ccc(OC)cc2)cc1` (relative stereo) [Example 1BR], the change in vivo at 50 mg/kg under setting [1] is -70% and the change in vivo at 50 mg/kg under setting [2] is -15%.
